Experiments:
[1] = test system: T790M-containing cell lines; conditions: several preclinical models; cited from earlier work
[2] = test system: EGFR-exon 19 deletion+T790M+C797S; conditions: preclinical models; cited from earlier work
EGFR mutant cell lines = experiment: cellular proliferation assays comparing EGFR mutant with EGFR wild type cell lines; format: cell-based; conditions: EGFR mutant versus EGFR wild type cell lines
Text: (§1) Compound A is a small molecule epidermal growth factor receptor (EGFR) mutant-specific inhibitor. […] Compound A is a novel, 3rd generation EGFR mutant-specific TKI, which is currently being investigated in first and second line setting for treatment of patients with EGFR-mutated NSCLC.

mutant forms of EGFR = experiment: enzymatic inhibitory activity, mutant forms of EGFR versus wild type EGFR; format: biochemical; conditions: in vitro
Text: as §1

[3] = test system: HCC827 (EGFRDelE746-A750); experiment: in vivo xenograft study in mice, NSCLC model HCC827; conditions: once daily or twice daily
Text: as §1

H1975 (EGFRL858R/T790M) = experiment: in vivo xenograft study in mice, NSCLC model H1975; conditions: once daily or twice daily
Text: as §1

[4] = mouse, in vivo
Text: as §1

In the case of CN(C)C/C=C/C(=O)Nc1cc2c(Nc3ccc(F)c(Cl)c3)ncnc2cc1O[C@H]1CCOC1 [Compound B, afatinib], the “inhibition of T790M-containing cell lines” value [1] is listed as “effectively inhibit”.
In the case of C=CC(=O)Nc1cc(Nc2nccc(-c3cn(C)c4ccccc34)n2)c(OC)cc1N(C)CCN(C)C [AZD9291, osimertinib], the “sensitivity of the mutant protein to the drug” value [2] is given as “resistant”.
For COc1cc2ncnc(Nc3ccc(F)c(Cl)c3)c2cc1NC(=O)/C=C/CN1CCCCC1 [dacomitinib], the “inhibition of T790M-containing cell lines” value [1] is listed as “effectively inhibit”.
For C=CC(=O)Nc1cccc(Oc2nc(Nc3ccc(N4CCN(C)CC4)cc3)nc3ccsc23)c1 [Compound A, N-(3-{2-[4-(4-methyl-piperazin-1-yl)-phenylamino]-thieno[3,2-d]pyrimidin-4-yloxy}-phenyl)-acrylamide], the “inhibition of proliferation of mutated cell lines at lower concentration than for cells expressing wild type EGFR receptor” value (EGFR mutant cell lines) was “approximately 35 fold”, the “enzymatic inhibitory activity towards mutant forms of EGFR compared to wild type EGFR” value (mutant forms of EGFR) was “more potent” and the “anti-tumor activity as a single agent” value [3] was “Tumor regressions were observed in all models”. The “anti-tumor activity as a single agent” value (H1975 (EGFRL858R/T790M)) was “Tumor regressions were observed in all models” and the tolerability [4] was “tolerated by the mice”.

Reference: patent US20190125751A1, “ANTICANCER COMBINATION THERAPY” (BOEHRINGER INGELHEIM INTERNATIONAL GMBH, priority 2016, published 2019)
